# Values quoted from earlier work, collected in patent US8637551B2, “2-(1,2-benzisoxazol-3-yl)benzylamine derivatives” (Merck Sharp & Dohme B.V., priority 2009, dated 2014).
# Experiments:
# [1] = test system: nerve injured myelinated DRG; details: Yagi et al, 2000
# [2] = test system: rat (Chung) model of neuropathic pain; details: for anti-allodynic effects in the Chung model: clinically used reference drugs
# [3] = test system: rat CFA model of inflammatory pain
# [4] = test system: A-beta and A-delta fibres; details: Lee et al 2005
# [5] = test system: rat, mild thermal injury model
# Brennan model = details: local administration to the sciatic nerve 4 h after surgery; Dalle & Eisenach 2005
smiles,measurement,setting,value
CCN(c1ccccc1)c1cc(=NC)n(C)c(C)n1.Cl [ZD 7288],spontaneous activity,[1],reduces spontaneous activity
same,reversal of mechanical allodynia,"[2]; intraperitoneal, Chung/von Frey, Chaplan et al 2003",dose-dependently reverses mechanical allodynia
same,allodynia,[3],suppresses allodynia
same,firing frequency of ectopic discharges,[4],reduced the firing frequency of ectopic discharges
same,spontaneous pain,[5],blocks spontaneous pain
same,mechanical allodynia,Brennan model,attenuates mechanical allodynia
CNCC[C@H](Oc1cccc2ccccc12)c1cccs1 [duloxetine],anti-allodynic effects in the Chung model,[2],anti-allodynic effects
NCC1(CC(=O)O)CCCCC1 [gabapentin],anti-allodynic effects in the Chung model,[2],anti-allodynic effects
CN1CC[C@]23c4c5ccc(O)c4O[C@H]2[C@@H](O)C=C[C@H]3[C@H]1C5 [morphine],anti-allodynic effects in the Chung model,[2],anti-allodynic effects
